Laboratory results from PubChem BioAssay (NCI).
“And” between values parts separate entries of the source, which are not always exact repeats. Identical values can stand only once.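 In this assay, cells in 96-well plates receive the compound at five concentrations for 48 hours. Endpoints are linearly interpolated between the surrounding concentrations. GI50 is the concentration that inhibits growth by half. TGI marks complete inhibition of growth.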

What was measured:
Assay in all cases: growth of human tumour cells (NCI), 48 h
HCC-2998 colon = tested on: HCC-2998 colon
M14 melanoma = tested on: M14 melanoma
MDA-MB-231 breast = tested on: MDA-MB-231 breast
MOLT-4 leukemia = tested on: MOLT-4 leukemia
SK-MEL-2 melanoma = tested on: SK-MEL-2 melanoma
SK-MEL-5 melanoma = tested on: SK-MEL-5 melanoma
SNB-19 CNS = tested on: SNB-19 CNS
SW-620 colon = tested on: SW-620 colon
UACC-257 melanoma = tested on: UACC-257 melanoma
IGROV1 ovarian = tested on: IGROV1 ovarian

Compound | GI50 (HCC-2998 colon) | TGI (HCC-2998 colon) | GI50 (M14 melanoma) | TGI (M14 melanoma) | GI50 (MDA-MB-231 breast) | TGI (MDA-MB-231 breast) | GI50 (MOLT-4 leukemia) [µM] | TGI (MOLT-4 leukemia) | GI50 (SK-MEL-2 melanoma) | TGI (SK-MEL-2 melanoma) | GI50 (SK-MEL-5 melanoma) [µM] | TGI (SK-MEL-5 melanoma) | GI50 (SNB-19 CNS) | TGI (SNB-19 CNS) | GI50 (SW-620 colon) | TGI (SW-620 colon) | GI50 (UACC-257 melanoma) | TGI (UACC-257 melanoma) | TGI (IGROV1 ovarian) | GI50 (IGROV1 ovarian) [µM]
Cc1ccc(CNc2c3ccccc3nc3cc(NC(=O)CCN4CCCC4)ccc23)cc1 | 0.573 µM | 2.01 µM | 1.45 µM | 2.84 µM | 0.602 µM | 1.98 µM | 0.316 | 1.32 µM | 1.69 µM | 3.23 µM | 1.54 | 2.89 µM | 0.624 µM | 1.92 µM | 0.413 µM | 1.58 µM | 1.69 µM | 3.27 µM | – | –
C=C1C(=O)OC2C1C(OC(=O)/C(C)=C/C)CC(O)(CCl)C1C(O)C3OC3(C)C21O (centres undefined) | – | > 50 µM | – | > 50 µM | – | > 50 µM | – | > 50 µM | – | > 50 µM | – | > 50 µM | – | > 50 µM | – | 34.1 µM | – | > 50 µM | > 50 µM | –
COc1ccc(/C=C2\CCCC3=C2NC(N)=NC3c2ccc(OC)c(OC)c2)cc1OC (centres undefined) | > 100 µM | > 100 µM | 6.25 µM | > 73.2 µM | 13.2 µM | > 100 µM | 4.04 | > 100 µM | 9.59 µM | 81.9 µM | 3.48 | > 100 µM | > 88.7 µM | > 100 µM | 4.58 µM | > 50.3 µM | 5 µM | > 81.1 µM | > 100 µM | 28.9
CCOc1ccccc1N=Nc1c(C)[nH]n(-c2nc(-c3ccccc3)cs2)c1=O | > 100 µM | > 100 µM | > 100 µM | > 100 µM | 44 µM | > 100 µM | > 100 | > 100 µM | 27.3 µM | > 100 µM | 41.6 | > 100 µM | 43.1 µM | > 100 µM | > 100 µM | > 100 µM | 52.5 µM | > 100 µM | > 85.3 µM | 25.8
CC1(C)[C@@H](OC(N)=O)[C@H]2O[C@H]2[C@]2(CO)[C@H]3CC[C@]4(C)[C@@H](c5ccc(=O)oc5)[C@@H](Cl)C[C@]4(O)C3=CC[C@@H]12 | 0.0151 µM | 0.107 µM | 0.0161 µM | 0.0558 µM | 0.0283 µM | 0.103 µM | 0.00519 | 0.0144 µM | 0.00818 µM | 0.033 µM | 0.00681 | 0.0195 µM | 0.0161 µM | 0.0509 µM | 0.00835 µM | 0.0279 µM | 0.012 µM | 0.045 µM | 0.0938 µM | 0.0116
COc1c2c(nc3ccccc13)-c1cc3c(c(=O)n1C2)COC(=O)C3(O)CC(=O)N1CCOCC1 (centres undefined) | – | 75.8 µM | – | 41.4 µM | – | > 100 µM | – | 5.03 µM | – | 64.6 µM | – | 23 µM | – | 83.6 µM | – | > 100 µM | – | 98.4 µM | 98.7 µM | –
O=C1c2ccccc2-c2c1c1ccccc1c(=O)n2CCN1CCOCC1 | 42.5 µM | > 100 µM | – | – | > 100 µM | > 100 µM | 14.7 | 38.6 µM | > 100 µM | > 100 µM | 49 | > 100 µM | > 100 µM | > 100 µM | 87.6 µM | > 100 µM | > 100 µM | > 100 µM | > 100 µM | 79.4
CN1CC[C@@H](c2c(O)cc(O)c3c(=O)cc(-c4ccccc4Cl)oc23)[C@@H]1CO | 0.36 µM | 3.67 µM | 0.331 µM | 1.26 µM | 0.292 µM | > 10 µM | 0.295 | > 3.79 µM | 0.228 µM | 0.594 µM | – | – | 0.344 µM | > 10 µM | 0.276 µM | > 10 µM | 0.296 µM | 1.36 µM | > 10 µM | 0.282
O=C(NN1C(=O)CSC12CCCC2)c1[nH]c2ccc(Br)cc2c1-c1ccccc1 | 44.6 µM | > 100 µM | 49.1 µM | > 100 µM | 32.5 µM | > 100 µM | 21.9 | 90.4 µM | 69 µM | > 100 µM | 63.9 | > 100 µM | 54.1 µM | > 100 µM | 74.6 µM | > 100 µM | > 100 µM | > 100 µM | > 100 µM | 21.8
Clc1nc(Cl)c2ncn(C/C=C/COc3cccc(OC/C=C/Cn4cnc5c(Cl)nc(Cl)nc54)c3)c2n1 | 42.1 µM | > 100 µM | 32.7 µM | > 100 µM | 12.7 µM | 25.3 µM | 26.5 | > 100 µM | > 100 µM | > 100 µM | 53.5 | > 100 µM | > 100 µM | > 100 µM | > 100 µM | > 100 µM | > 100 µM | > 100 µM | > 100 µM | > 100
COc1ccc(C2SC(C)C(=O)N2NC(=O)C(O)c2ccccc2)cc1OC (centres undefined) | > 100 µM | > 100 µM | > 100 µM | > 100 µM | > 100 µM | > 100 µM | > 100 | > 100 µM | > 100 µM | > 100 µM | > 100 | > 100 µM | > 100 µM | > 100 µM | > 100 µM | > 100 µM | > 100 µM | > 100 µM | > 100 µM | > 100
O=C(NC[C@H](O)CO)c1ccncc1Nc1ccc(I)cc1F | 0.00358 µM and 0.019 µM | > 8.4 µM and 9.22 µM | 0.0031 µM and < 0.01 µM | > 3.52 µM and 10.8 µM | 0.154 µM and 0.348 µM | > 10 µM and 46.7 µM | > 79.9 | > 100 µM | 0.00484 µM and < 0.01 µM | 0.0923 µM and 0.0599 µM | 7.7 | > 100 µM | > 10 µM and 21.2 µM | > 100 µM | 0.0144 µM and 0.0188 µM | > 100 µM | 0.00359 µM and < 0.01 µM | 0.0403 µM and 0.0438 µM | > 100 µM | –
CCN(CC)Cc1ccc(Nc2nccc(-c3cnn4ncccc34)n2)cc1 | 0.0333 µM | 0.129 µM | 0.0291 µM | 0.0845 µM | 0.0226 µM | > 25 µM | 0.0388 | 0.144 µM | 0.0208 µM | 0.0704 µM | 0.0419 | 0.215 µM | 0.0296 µM | > 25 µM | 0.0136 µM | > 9.07 µM | 0.0443 µM | 0.143 µM | > 20.8 µM | 0.0275
COc1ccc(/C=C\c2cc(OC)c(OC)c(OC)c2)cc1OC | – | 0.579 µM and 0.372 µM | 0.0603 µM | 40.4 µM and 18.1 µM | – | > 100 µM | – | 28 µM and 14.6 µM | 0.121 µM | 40.4 µM and > 100 µM | 0.0514 | 40.4 µM and 16.8 µM | 0.32 µM | 40.4 µM and 83.6 µM | 0.0472 µM | 40.4 µM and > 100 µM | 6.09 µM | 40.4 µM and > 100 µM | 40.4 µM and 21.5 µM | 0.0537
O=C(Nc1cccc(NC(=O)Nc2cc(C(F)(F)F)ccc2Cl)c1)Nc1cc(C(F)(F)F)ccc1Cl | 6.72 µM | > 100 µM | 3.53 µM | 60 µM | 2.3 µM | 22 µM | 5.19 | > 100 µM | 2.53 µM | 7.33 µM | 3.2 | 65.6 µM | 1.77 µM | 14 µM | 3.28 µM | > 100 µM | 4.29 µM | 41.4 µM | 18.8 µM | 3.52
Cn1cc(C2=C(c3cccc(OCC(O)CO)c3)C(=O)NC2=O)c2ccccc21 (centres undefined) | > 25 µM | > 25 µM | > 25 µM | > 25 µM | > 25 µM | > 25 µM | > 25 | > 25 µM | > 25 µM | > 25 µM | > 25 | > 25 µM | > 25 µM | > 25 µM | > 25 µM | > 25 µM | > 25 µM | > 25 µM | > 25 µM | > 25
CN(C)c1ccc2c(c1)OC(N)=C(C#N)C2c1ccc2c(c1)CCO2 (centres undefined) | 0.469 µM | > 100 µM | 0.0417 µM | 11.4 µM | 0.419 µM | 28.6 µM | 0.3 | 32.4 µM | 0.0962 µM | 24.7 µM | < 0.0427 | 15.1 µM | 1.17 µM | > 100 µM | < 0.0294 µM | > 100 µM | 27 µM | > 100 µM | > 100 µM | 0.326
COc1ccc(C(=O)c2cc3c(N)c(C(=O)Nc4cccc5ccccc45)sc3nc2C)cc1 | 0.424 µM | > 50 µM | 0.166 µM | > 50 µM | 0.271 µM | > 50 µM | 0.308 | > 50 µM | > 50 µM | > 50 µM | 0.193 | 1.4 µM | 0.208 µM | > 50 µM | 0.203 µM | > 50 µM | > 50 µM | > 50 µM | > 50 µM | 0.268
C1CN(SSN2CCOCC2)CCO1 | > 100 µM | > 100 µM | 20.6 µM | 48.9 µM | 92.8 µM | > 100 µM | 47.3 | > 100 µM | > 100 µM | > 100 µM | 41.1 | > 100 µM | > 100 µM | > 100 µM | 19.4 µM | 42 µM | 62.8 µM | > 100 µM | > 100 µM | 70.7
CCSCCCN(CCCSCC)CCCSCC | – | > 100 µM | – | > 100 µM | – | > 100 µM | – | > 100 µM | – | – | – | > 100 µM | – | > 100 µM | – | > 100 µM | – | > 100 µM | > 100 µM | –
